In assay [1] the test system is TRN and neighboring relay nuclei (eGLuc-VChR1). The assay can be described thus: in vivo laminar electrode recording from TRN and neighboring relay nuclei after IV CTZ. The following applies: ca. 150 μg CTZ IV (tail vein). Further details: species or system mice. How it is done:
(§1) Mice were injected with AAV2/9-hSyn-eGLuc-VChR1 into the thalamus of mice, and in vitro slice experiments were performed 7-12 days later. […] VPm expression was negligible except from TRN axons. Expressing TRN neurons were electrophysiologically normal, and strongly responsive to LED light pulses (FIGS. 5B and 5C). The short latencies and other properties of these responses indicate robust VChR1 expression. Superfusion of the luciferin CTZ (100 μM) caused ca. 1-3 mV reversible depolarization (FIGS. 5D and 5E; N=3 cells, 2 mice). […] At 20 days post viral injection, a 16-contact laminar electrode was used to record from the TRN and neighboring relay nuclei under light isoflurane anesthesia (0.5%). […] Spike shape also indicated relay neuron and not TRN identity. […] These combined effects are consistent with TRN-driven hyperpolarization of this neuron and a shift to burst mode.

Assay [2] concerns neocortical neurons expressing eGLuc-Mac. The assay can be described thus: action potential firing in cultured neocortical neurons expressing eGLuc-Mac. Type of assay: cell-based. The following applies: cell expressing fusion protein containing eGLuc-Mac (hyperpolarization). The text has this:
(§2) The neurons were modified to express fusion proteins including a luminescent protein (enhanced Gaussia luciferase (eGLuc)) and either VChR1 or Mac. Successful expression of the full construct in the neocortical neurons was confirmed by observation of the fluorescence of the reporter protein (upper middle panel titled Fluorescence in FIG. 3). Ability of eGLuc to luminesce was unaffected by the inclusion of light-gated ion channel (VChR1 or Mac), as shown in the upper right panel titled Luminescence in FIG. 3).

Assay [3] deals with neocortical neurons transfected with Gaussia luciferase. Put plainly: IVIS imaging of mouse brain expressing Gaussia luciferase after intravenous coelenterazine. Type of assay: in vivo. To be noted: intravenous injection several weeks after transfection; right hemisphere. How it is done: FIG. 2 is a photograph showing an example in which neocortical neurons in the right hemisphere were transfected with a Gaussia luciferase.
Several weeks later, coelenterazine was administered intravenously to the mouse, and an image of the mouse's head was taken with IVIS® imaging system (FIG. 2).

Assay [4] deals with neocortical neurons expressing eGLuc-VChR1. The assay can be described thus: action potential firing in cultured neocortical neurons expressing eGLuc-VChR1. Type of assay: cell-based. To be noted: cell expressing fusion protein containing eGLuc-VChR1 (depolarization).
Excerpt: as §2

Assay [5] deals with TRN neurons expressing eGLuc-VChR1. Put plainly: in vitro slice recordings of TRN neurons transduced with AAV2/9-hSyn-eGLuc-VChR1, CTZ superfusion. Format: cell-based, mice. The method, then: as §1
Assay [6] deals with rat cortical neurons expressing LMO3. Put plainly: multi electrode array (MEA) recording and luminescence of cortical neurons expressing LMO3 (sbGLuc-VChR1). Format: cell-based. An excerpt: FIGS. 12A-12D show multi electrode arrays used in the in vitro experiments on rat cortical neurons. FIG. 12A is a schematic of the multi electrode array. FIGS. 12B and 12C are images of the electrode array. FIG. 12D is a fluorescent image of MEA culture of rat cortical neurons transduced with AAV-hSyn-LMO3, where LMO3 is a fusion of sbGLuc and VChR1. Neurons are visible in fluorescent green, because of the expression of LMO3, which includes EYFP.
FIG. 13 is a series of graphs showing the luminescence and neuronal activity of rat cortical neurons in response to contacting with coelenterazine (CTZ) or with the vehicle.
Excitable cells (rat cortical neurons) expressing a light-gated ion channel (VChR1) fused to a luminescent protein (Gaussia luciferase) were cultured on multi electrode arrays (MEA), as shown in FIGS. 12A-12D. The results are shown in FIG. 13 Under continuous recording MEA dishes were injected (see arrows) with CTZ or with vehicle. Upon injection a pronounced artifact was observed (see FIG. 13). […] In contrast, vehicle injection causes the artifact, but neuronal spiking pattern is not altered. […] Neurons in the culture express LMO3 (luminopsins 3, a fusion of sbGLuc and VChR1). Upon application of substrate (CTZ), but not of vehicle, the luciferase emits light which activates the channelrhodopsin, resulting in changed spiking activity (see before and after CTZ). […]

The values that follow come from patent publication US11242374B2, “Minimally-invasive and activity-dependent control of excitable cells” (Brown University, priority 2015, dated 2022).

With `Oc1ccc(Cc2nc3c(Cc4ccccc4)nc(-c4ccc(O)cc4)cn3c2O)cc1` [CTZ, coelenterazine], in assay [1], the “burst rate in Cell 2 (events with 100 msec prior inactivity and >95 Hz spike rate)” value was “increase in burst rate”; the “firing rate in other cells (Cell 2, relay neuron)” value is “decreases in firing rate”. Further, the “firing in multi-unit activity and well-isolated single neurons (Cell 1)” value in assay [1] (putative TRN, 20 days post viral injection, isoflurane 0.5%) is given as “firing increased”. Besides, the “spontaneous action potential firing” value in assay [2] is “suppression of spontaneous action potential firing”. In addition, in assay [3], the “bioluminescence emission through the scalp” value was “emitted brightly”. In addition, the “spontaneous action potential firing” value in assay [4] is reported as “increase in spontaneous action potential firing”. In addition, the “onset of stimulus-evoked spike bursts” value in assay [5] (CTZ-evoked depolarization vs control) is given as “delaying onset of stimulus-evoked spike bursts”. Also, in assay [5] (superfusion of CTZ 100 μM, N=3 cells, 2 mice), the reversible depolarization is reported as 1-3 mV. The “neuronal spiking pattern on MEA” value in assay [6] (CTZ injected into MEA dishes, vehicle does not alter pattern) is given as “desynchronized spiking”. In addition, the luminescence of neurons result in assay [6] (contacting with CTZ vs vehicle) is listed as “results in luminescence”.
